Test results taken from patent US12187704B2, “Triazine derivatives and methods of use thereof” (Ascletis BioScience Co., Ltd., priority 2022, dated 2025).
Like-named read-outs stand apart in the source and are kept apart here.

How the values were obtained:
[1] = test system: SARS-COV-2 Omicron hCoV-19/USA/MD HP20874/2021 (B.1.1.529) strain; assay: In vitro antiviral activity against SARS-COV-2 Omicron B.1.1.529 in Calu-3 cells; format: cell-based; settings: Severe acute respiratory syndrome coronavirus 2, Calu-3, 48 h
[2] = test system: hCoV-19/USA/Chicago IL/2022 (BA.5.2); assay: In vitro antiviral activity against SARS-COV-2 BA.5.2 in Calu-3 cells; format: cell-based; settings: Severe acute respiratory syndrome coronavirus 2, Calu-3, 48 h
in vivo [3] = settings: monkey, crab-eating monkeys, plasma
Experimental: (§1) Oral administration: The compounds were administered with a volume ratio of Solutol:PEG400:Tween80:Saline=10:40:2:48 (v/v/v/v) at a dose of 2 mg/kg. At 0.25 h, 0.5 h, 1 h, 2 h, 4 h, 8 h, 10 h, 12 h and 24 h after drug administration, blood was serially collected from the fundus venous plexus in EP tubes containing EDTA, centrifuged at 8000 rpm/min for 5 min and then the upper layer of plasma was frozen at −80° C. and stored for LC-MS/MS analysis.
(§2) Intravenous administration: the compound was administered with 10% DMSO/30% PEG400/60% water (v/v/v) at a dose of 1 mg/kg). At 0.0833 h, 0.25 h, 0.5 h, 1 h, 2 h, 4 h, 8 h, 12 h and 24 h after drug administration, blood was serially collected from the fundic venous plexus in EP tubes containing EDTA, centrifuged at 8000 rpm/min for 5 min and then the upper layer of plasma was frozen at −80° C. and stored for LC-MS/MS analysis.
(§3) The pharmacokinetic parameters were calculated from the blood concentration-time data obtained from the tests using WinNonlin software.

in vivo [4] = settings: rat
Experimental: as §1, with “The compound was” for “The compounds were”, “Solutol:PEG400:Tween80:Saline=10:40:2:48 […]” for “Solutol:PEG400:Tween80:Saline=10:40:2:48 (v/v/v/v)”, “of 10” for “of 2”
as §2, with “with a volume ratio of” for “with”
as §3

[5] = intravenous, 1 mg/kg, read-out: Intravenous injection AUClast
[6] = oral, 2 mg/kg, read-out: Oral AUClast

| Structure (SMILES) | EC50 [1] | EC50 [2] | AUC(0-t) (in vivo [3]; [5]) | AUC(0-t) (in vivo [3]; [6]) | AUC(0-t) (in vivo [4]; iv, 1 mg/kg) | AUC(0-t) (in vivo [4]; po, 10 mg/kg) |
| --- | --- | --- | --- | --- | --- | --- |
| Cn1cc2cc(Nc3nc(=O)n(-c4cc(F)cnc4Cl)c(=O)n3Cc3cc(F)c(F)cc3F)c(Cl)cc2n1 [Compound 2] | 0.098 µM | 0.156 µM | – | – | – | – |
| O=c1nc(Nc2cc3cn(CCO)nc3cc2Cl)n(Cc2cc(F)c(F)cc2F)c(=O)n1-c1cncc(Cl)c1 [Compound 4] | 0.013 µM | 0.018 µM | 10.3 µg·h/mL | 15.2 µg·h/mL | 2.04 µg·h/mL | 10.8 µg·h/mL |
| Cn1cc2cc(Nc3nc(=O)n(-c4cc(Cl)cnc4Cl)c(=O)n3Cc3cc(F)c(F)cc3F)c(Cl)cc2n1 [Compound 3] | 0.084 µM | 0.149 µM | – | – | – | – |
| Cn1cc2cc(Nc3nc(=O)n(-c4cncnc4)c(=O)n3Cc3cc(F)c(F)cc3F)c(Cl)cc2n1 [Compound 1, 6-((6-chloro-2-methyl-2H-indazol-5-yl)amino)-3-(pyrimidin-5-yl)-1-(2,4,5-trifluorobenzyl)-1,3,5-triazine-2,4(1H,3H)-dione] | 0.195 µM | 0.323 µM | – | – | – | – |
| [2H]C([2H])([2H])n1cc2cc(Nc3nc(=O)n(-c4cncc(Cl)c4)c(=O)n3Cc3cc(F)c(F)cc3F)c(Cl)cc2n1 [Compound 5] | 0.009 µM | 0.015 µM | 38.4 µg·h/mL | 60.7 µg·h/mL | 19 µg·h/mL | 224 µg·h/mL |
| [2H]C([2H])([2H])n1cc2cc(Nc3nc(=O)n(-c4cncc(Cl)c4)c(=O)n3Cc3cc(F)c(F)cc3F)c(Br)cc2n1 [Compound 6] | 0.01 µM | 0.02 µM | 35.7 µg·h/mL | 59 µg·h/mL | 19.5 µg·h/mL | 205 µg·h/mL |
